According to patent US20080063704A1, “Stable gabapentin compositions” (priority 2004, published 2008):

What was measured:
Type in all cases: physicochemical
[1] = Pre-formulation excipient compatibility study: Appearance
Source text: (§1) All the ingredients were passed through 20 mesh screen and blended together. The results of all the pre-formulation compatibility studies are given in Tables 25 to 39, including comparative results for the drug substance (Table 39) and UK reference product (Table 38) as controls.
(§2) Aim: To carry out preformulation excipient compatibility studies for Gabapentin capsules
(§3) Binary mixtures to be evaluated (with and without water as necessary):
(§4) 1. Drug and diluents (1:0.5)
(§5) 2. Drug and lubricants(1:0.1)
(§6) 3. Drug and solubilizer (1:0.001)
(§7) 4. Proposed formulation from the in vitro formulation trials to confirm the extent of interactions and identify suitably stable formulations.
(§8) Where humidity controls are not available a defined amount of water may be added to the samples. Storage of samples was in petridishes and in stoppered glass vials.
(§9) The following tests were performed at each interval:
(§10) The following tests were performed at 14 and 28 day intervals.

[2] = Pre-formulation excipient compatibility study: HPLC assay
Source text: as §1, §2, §3, §4, §5, §6, §7, §8, §9
2. HPLC assay (as for HPLC related substances assay but calibrated for gabapentin resolution rather than for related substances)

[3] = Pre-formulation excipient compatibility study: HPLC assay for related substances
Source text: HPLC Assay for Related Substances
as §1, §2, §3, §4, §5, §6, §7
Significant degradation is defined as
1. >0.5% w/w formation of lactam degradation product at conditions up to 40° C./75% RH.
2. Formation of other degradants at levels >0.1% w/w.
3. Greater relative instability of mixture or formulation to Gabapentin drug substance and Neurotonin capsules.
as §8, §10
3. HPLC assay for related substances

NCC1(CC(=O)O)CCCCC1 [Gabapentin]
Description ([1]; 25° C./60% RH, 3 days): White
Description ([1]; 25° C./60% RH, 7 days): White
Description ([1]; 25° C./60% RH, 14 days): White
Description ([1]; 25° C./60% RH, 28 days): White
Description ([1]; 40° C./75% RH, 3 days): White
Description ([1]; 40° C./75% RH, 7 days): White
Description ([1]; 40° C./75% RH, 14 days): White
Description ([1]; 40° C./75% RH, 28 days): White
Description ([1]; 50° C., 3 days): White
Description ([1]; 50° C., 7 days): White
Description ([1]; 50° C., 14 days): White
Description ([1]; 50° C., 28 days): White
Description ([1]; Initial): White
Assay ([2]; 25° C./60% RH, 7 days): 98.6%
Assay ([2]; 25° C./60% RH, 14 days): 98.6%
Assay ([2]; 25° C./60% RH, 28 days): 98.51%
Assay ([2]; 40° C./75% RH, 7 days): 98.53%
Assay ([2]; 40° C./75% RH, 14 days): 98.4%
Assay ([2]; 40° C./75% RH, 28 days): 97.79%
Assay ([2]; 50° C., 7 days): 98.5%
Assay ([2]; 50° C., 14 days): 98.5%
Assay ([2]; 50° C., 28 days): 98.1%
Assay ([2]; Initial): 99.4%
Impurities a) Lactam content ([3]; 25° C./60% RH, 14 days): Nil
Impurities b) Single largest individual Impurities ([3]; 25° C./60% RH, 14 days): Nil
Impurities c) Total other Impurities ([3]; 25° C./60% RH, 14 days): Nil
Impurities d) Total Impurities ([3]; 25° C./60% RH, 14 days): Nil
Impurities a) Lactam content ([3]; 25° C./60% RH, 28 days): Nil
Impurities b) Single largest individual Impurities ([3]; 25° C./60% RH, 28 days): Nil
Impurities c) Total other Impurities ([3]; 25° C./60% RH, 28 days): Nil
Impurities d) Total Impurities ([3]; 25° C./60% RH, 28 days): Nil
Impurities a) Lactam content ([3]; 40° C./75% RH, 14 days): Nil
Impurities b) Single largest individual Impurities ([3]; 40° C./75% RH, 14 days): Nil
Impurities c) Total other Impurities ([3]; 40° C./75% RH, 14 days): Nil
Impurities d) Total Impurities ([3]; 40° C./75% RH, 14 days): Nil
Impurities a) Lactam content ([3]; 40° C./75% RH, 28 days): Nil
Impurities b) Single largest individual Impurities ([3]; 40° C./75% RH, 28 days): Nil
Impurities c) Total other Impurities ([3]; 40° C./75% RH, 28 days): Nil
Impurities d) Total Impurities ([3]; 40° C./75% RH, 28 days): Nil
Impurities a) Lactam content ([3]; 50° C., 14 days): 0.004%
Impurities b) Single largest individual Impurities ([3]; 50° C., 14 days): Nil
Impurities c) Total other Impurities ([3]; 50° C., 14 days): Nil
Impurities d) Total Impurities ([3]; 50° C., 14 days): Nil
Impurities a) Lactam content ([3]; 50° C., 28 days): 0.004%
Impurities b) Single largest individual Impurities ([3]; 50° C., 28 days): Nil
Impurities c) Total other Impurities ([3]; 50° C., 28 days): Nil
Impurities d) Total Impurities ([3]; 50° C., 28 days): Nil
Impurities a) Lactam content ([3]; Initial): Nil
Impurities b) Single largest individual Impurities ([3]; Initial): Nil
Impurities c) Total other Impurities ([3]; Initial): Nil
Impurities d) Total Impurities ([3]; Initial): Nil
